The structures appear in SMILES notation. Active and inactive are the calls of the source. The calls are words filed in the database; no cut-off is given here.

The first assay deals with Plasmodium falciparum. Briefly: Antimalarial activity against multidrug-resistant Plasmodium falciparum K1 at 10 uM by microculture radioisotope assay. Type of assay: functional, organism-based.
Take `CC(=O)O[C@@H]1[C@@H]2[C@H](Cc3occc3[C@@]2(C)O)[C@@]2(C)C(=O)CCC(C)(C)[C@]2(O)[C@H]1OC(C)=O`: the outcome was inactive.

A further assay has as its system BT-474. Nature of the assay: Cytotoxicity against human BT474 cells at 10 ug/ml by MTT assay. The format is functional, cell-based. (In general: Tetrazolium dyes change colour on reduction, which living cells bring about.)
Consider `CC(=O)O[C@@H]1[C@@H]2[C@H](Cc3occc3[C@@]2(C)O)[C@@]2(C)C(=O)CCC(C)(C)[C@]2(O)[C@H]1OC(C)=O`, for which the Activity entry was “Not toxic”.

For the compound `COC(=O)[C@@H]1c2ccoc2C[C@H]2[C@H]1[C@@H](OC(C)=O)[C@H](O)[C@@]1(O)C(C)(C)CCC(=O)[C@]21C` [BONDUCELLPIN E], the Activity entry was “Not toxic”.

With `C=C1c2ccoc2C[C@H]2[C@H]1[C@@H](OC(C)=O)[C@H](O)[C@@]1(O)C(C)(C)CCC(=O)[C@]21C` [BONDUCELLPIN F], the Activity entry is “Not toxic”.

Turning to `C=C1c2ccoc2C[C@H]2[C@H]1[C@@H](O)[C@H](OC(C)=O)[C@@]1(O)C(C)(C)CC[C@H](OC(C)=O)[C@]21C` [BONDUCELLPIN G], the Activity result is “Not toxic”.

In a further assay the test system is Plasmodium falciparum. Nature of the assay: Antimalarial activity against multidrug-resistant Plasmodium falciparum K1 by microculture radioisotope assay. Type of assay: functional, organism-based.
As for `C[C@H]1[C@@H](O)O[C@@H]2O[C@@]3(C)CC[C@H]4[C@H](C)CC[C@@H]1[C@@]24OO3` [ARTENIMOL], half-maximal inhibition (IC50) was put at 4 nM.

Turning to `COC(=O)[C@@H]1c2ccoc2C[C@H]2[C@H]1[C@@H](OC(C)=O)[C@H](O)[C@@]1(O)C(C)(C)CCC(=O)[C@]21C` [BONDUCELLPIN E], the IC50 worked out at 1600 nM.

For `C=C1c2ccoc2C[C@H]2[C@H]1[C@@H](OC(C)=O)[C@H](O)[C@@]1(O)C(C)(C)CCC(=O)[C@]21C` [BONDUCELLPIN F], the midpoint of inhibition, the IC50, lay at 5800 nM.

In the case of `C=C1c2ccoc2C[C@H]2[C@H]1[C@@H](O)[C@H](OC(C)=O)[C@@]1(O)C(C)(C)CC[C@H](OC(C)=O)[C@]21C` [BONDUCELLPIN G], the IC50 was 3800 nM.

Another assay deals with KATO3. Briefly: Cytotoxicity against human KATO3 cells at 10 ug/ml by MTT assay. Type of assay: functional, cell-based.
`CC(=O)O[C@@H]1[C@@H]2[C@H](Cc3occc3[C@@]2(C)O)[C@@]2(C)C(=O)CCC(C)(C)[C@]2(O)[C@H]1OC(C)=O`: the Activity result was “Not toxic”.

For `COC(=O)[C@@H]1c2ccoc2C[C@H]2[C@H]1[C@@H](OC(C)=O)[C@H](O)[C@@]1(O)C(C)(C)CCC(=O)[C@]21C` [BONDUCELLPIN E], the Activity result is “Not toxic”.

For the compound `C=C1c2ccoc2C[C@H]2[C@H]1[C@@H](OC(C)=O)[C@H](O)[C@@]1(O)C(C)(C)CCC(=O)[C@]21C` [BONDUCELLPIN F], the Activity result is “Not toxic”.

Regarding `C=C1c2ccoc2C[C@H]2[C@H]1[C@@H](O)[C@H](OC(C)=O)[C@@]1(O)C(C)(C)CC[C@H](OC(C)=O)[C@]21C` [BONDUCELLPIN G], the Activity entry was “Not toxic”.

A further assay concerns HepG2. Briefly: Cytotoxicity against human HepG2 cells at 10 ug/ml by MTT assay. The format is functional, cell-based.
Take `CC(=O)O[C@@H]1[C@@H]2[C@H](Cc3occc3[C@@]2(C)O)[C@@]2(C)C(=O)CCC(C)(C)[C@]2(O)[C@H]1OC(C)=O`: the Activity result is “Not toxic”.

On to `COC(=O)[C@@H]1c2ccoc2C[C@H]2[C@H]1[C@@H](OC(C)=O)[C@H](O)[C@@]1(O)C(C)(C)CCC(=O)[C@]21C` [BONDUCELLPIN E], for which the Activity result was “Not toxic”.

In the case of `C=C1c2ccoc2C[C@H]2[C@H]1[C@@H](OC(C)=O)[C@H](O)[C@@]1(O)C(C)(C)CCC(=O)[C@]21C` [BONDUCELLPIN F], the Activity result was “Not toxic”.

For `C=C1c2ccoc2C[C@H]2[C@H]1[C@@H](O)[C@H](OC(C)=O)[C@@]1(O)C(C)(C)CC[C@H](OC(C)=O)[C@]21C` [BONDUCELLPIN G], the Activity entry was “Not toxic”.

The subject of the next assay is CHAGO. Nature of the assay: Cytotoxicity against human CHAGO cells at 10 ug/ml by MTT assay. Type of assay: functional, cell-based.
On to `CC(=O)O[C@@H]1[C@@H]2[C@H](Cc3occc3[C@@]2(C)O)[C@@]2(C)C(=O)CCC(C)(C)[C@]2(O)[C@H]1OC(C)=O`, for which the Activity result was “Not toxic”.

As to `COC(=O)[C@@H]1c2ccoc2C[C@H]2[C@H]1[C@@H](OC(C)=O)[C@H](O)[C@@]1(O)C(C)(C)CCC(=O)[C@]21C` [BONDUCELLPIN E], the Activity result is “Not toxic”.

`C=C1c2ccoc2C[C@H]2[C@H]1[C@@H](OC(C)=O)[C@H](O)[C@@]1(O)C(C)(C)CCC(=O)[C@]21C` [BONDUCELLPIN F]: the Activity result was “Not toxic”.

For the compound `C=C1c2ccoc2C[C@H]2[C@H]1[C@@H](O)[C@H](OC(C)=O)[C@@]1(O)C(C)(C)CC[C@H](OC(C)=O)[C@]21C` [BONDUCELLPIN G], the Activity result was “Not toxic”.

A further assay concerns SW-620. Nature of the assay: Cytotoxicity against human SW620 cells at 10 ug/ml by MTT assay. The format is functional, cell-based.
For the compound `CC(=O)O[C@@H]1[C@@H]2[C@H](Cc3occc3[C@@]2(C)O)[C@@]2(C)C(=O)CCC(C)(C)[C@]2(O)[C@H]1OC(C)=O`, the Activity entry is “Not toxic”.

With `COC(=O)[C@@H]1c2ccoc2C[C@H]2[C@H]1[C@@H](OC(C)=O)[C@H](O)[C@@]1(O)C(C)(C)CCC(=O)[C@]21C` [BONDUCELLPIN E], the Activity result is “Not toxic”.

On to `C=C1c2ccoc2C[C@H]2[C@H]1[C@@H](OC(C)=O)[C@H](O)[C@@]1(O)C(C)(C)CCC(=O)[C@]21C` [BONDUCELLPIN F], for which the Activity result was “Not toxic”.

As to `C=C1c2ccoc2C[C@H]2[C@H]1[C@@H](O)[C@H](OC(C)=O)[C@@]1(O)C(C)(C)CC[C@H](OC(C)=O)[C@]21C` [BONDUCELLPIN G], the Activity result is “Not toxic”.

The IC50 is the concentration that inhibits the measured activity by half. A higher IC50 goes with a need for much substance.
